Experimental data published in patent publication US11319347B2, “Peptide compound and method for producing same, composition for screening use, and method for selecting peptide compound” (FUJIFILM Corporation, priority 2017, dated 2022).
Read-outs that look alike come from different tables or passages of the source. Starred links: 1 amine or outer side, 2 acyl side, 3 side chain; linkers in the order of their positions; H or OH if unused. Positions of bridges follow the written chain, without caps; N, C: chain ends. Non-standard residues stand in square brackets, D forms with d. Residues, ends and D or L forms follow the SMILES beside them. ξ: configuration not given here. 2Pal(6-thiazolin-2-yl-4R-CO) = O=C([C@H](Cc1cccc(C2=N[C@H](C(=O)[*:3])CS2)n1)N[*:1])[*:2]; Ile(3ξ) = CCC(C)[C@H](N)C(=O)O

Target: Mcl-1
Assay: Binding of synthetic peptide to target protein by surface plasmon resonance (SPR, Biacore T200)
Experimental: Preparation of Target Protein
A plasmid construct was prepared in which a gene containing the amino acid 1-172 portion of MCL-1 was introduced into plasmid pET28a, and a His6 tag, MBP, and a TEV protease recognition sequence were attached to the N terminal side thereof. This plasmid was transformed into E. coli strain BL21 (DE3) RIPL which was then cultured at 30° C. In a case where the O.D. reached 0.8, IPTG […] was added to induce large-scale expression, followed by culturing at 16° C. overnight. The recovered bacterial cells were suspended in Lysis Buffer A (25 mmol/L Tris (pH 7.5), 150 mmol/L NaCl), and then disrupted by sonication. This was followed by centrifugation at 15 krpm for 15 minutes. The supernatant after centrifugation was purified using a Ni-NTA resin (manufactured by QIAGEN GmbH). The sample adsorbed to the Ni-NTA resin was washed with Lysis Buffer A containing 15 mmol/L imidazole and then eluted with Lysis Buffer A containing 200 mmol/L imidazole. The sample was stored at −80° C. after substitution with Lysis buffer by dialysis.
Evaluation of Binding of Synthetic Peptide to Target Protein Using Surface Plasmon Resonance (SPR)
An SPR experiment for analyzing the interaction of a synthetic peptide with Mel-1 was carried out at 25° C. using Biacore T200 (manufactured by GE Healthcare Inc.). The synthetic peptide was added to the immobilized protein, and the interaction therebetween was evaluated.
A buffer obtained by adding dimethylformamide (DMF) or dimethylsulfoxide (DMSO) to a final concentration of 1 vol % to HBS-EP+ (manufactured by GE Healthcare Inc.) was used as a running buffer. Mcl-1 was immobilized on a Biacore Sensor Chip Series S Sensor Chip CM5 (manufactured by GE Healthcare Inc.) using an Amine Coupling Kit (manufactured by GE Healthcare Inc.). In order to measure the dissociation constant (KD), each synthetic peptide was added at multiple concentrations to obtain a sensorgram of binding to immobilized Mel-1.
The analysis of the obtained sensorgram was carried out using T200 evaluation software (manufactured by GE Healthcare Inc.). Solvent correction to DMF or DMSO was carried out, and then the KD was determined by equilibrium value analysis using a sensorgram obtained by subtracting the sensorgram to a flow cell in which Mcl-1 is not immobilized.
One having a KD of less than 50 μmol/L is denoted as A, and one having a KD of 50 μmol/L or more is denoted as B.
Binding of the synthetic peptide to the target protein was evaluated in the same manner as described above.

[1] = 25° C., immobilized Mcl-1, Table 51, read-out: Binding evaluation result (KD)
[2] = immobilized Mcl-1, Table 53 (peptides from mRNA display), read-out: Binding evaluation result (KD)

CC(C)C[C@@H]1NC(=O)[C@H](Cc2ccccc2)NC(=O)[C@H](C)NC(=O)[C@@H]2CCCN2C(=O)[C@H](Cc2c[nH]c3ccccc23)NC(=O)[C@H](CC(C)C)NC(=O)[C@@H](CS)NC(=O)[C@H](C)NC(=O)C(Cc2c[nH]c3ccccc23)NC(=O)[C@H](CO)NC(=O)C(CCCNC(=N)N)NC(=O)[C@@H]2CSC(=N2)c2cccc(n2)C[C@H](C(N)=O)NC(=O)[C@H](Cc2ccc(O)cc2)NC(=O)[C@H](Cc2c[nH]c3ccccc23)NC1=O (stereo partly drawn) [Cyclic peptide a-5-1]
Kd [1]: ≥ 50 µM

CC(C)C[C@@H]1NC(=O)[C@H](C(C)C)NC(=O)[C@H](CO)NC(=O)[C@H](Cc2ccccc2)NC(=O)[C@H](C)NC(=O)[C@H](Cc2c[nH]c3ccccc23)NC(=O)[C@@H]2CSC(=N2)c2cccc(n2)C[C@H](C(N)=O)NC(=O)[C@H](Cc2c[nH]c3ccccc23)NC(=O)[C@H](C(C)C)NC(=O)[C@@H]2CCCN2C(=O)[C@H](Cc2ccccc2)NC(=O)[C@H](Cc2c[nH]c3ccccc23)NC(=O)[C@@H]2CCCN2C(=O)[C@H](Cc2c[nH]c3ccccc23)NC1=O [Cyclic peptide a-5-2]
Kd [1]: ≥ 50 µM

CC(C)C[C@@H]1NC(=O)[C@H](C)NC(=O)[C@@H](Cc2ccccc2)NC(=O)[C@@H]2CSC(=N2)c2cccc(n2)C[C@@H](C(N)=O)NC(=O)[C@H](Cc2ccccc2)NC(=O)[C@H](C)NC(=O)[C@H](CC(C)C)NC(=O)[C@@H]2CCCN2C(=O)[C@@H](CC(C)C)NC(=O)[C@@H](Cc2ccccc2)NC(=O)[C@H](CCC(N)=O)NC(=O)[C@@H]2CCCN2C(=O)[C@@H](Cc2c[nH]c3ccccc23)NC(=O)[C@H](CC(C)C)NC1=O [Cyclic peptide a-5-3] ([dF]ALL[dW]PQ[dF][dL]PLAF[2Pal(6-thiazolin-2-yl-4R-CO)]-NH2; lactam N-14)
Kd [1]: ≥ 50 µM

CC(C)C[C@@H]1NC(=O)[C@H](C(C)C)NC(=O)[C@H](CO)NC(=O)[C@H](Cc2c[nH]c3ccccc23)NC(=O)[C@@H]2CSC(=N2)c2cccc(n2)C[C@@H](C(N)=O)NC(=O)[C@H](CO)NC(=O)[C@H](C(C)C)NC(=O)[C@H](CO)NC(=O)[C@@H]2CCCN2C(=O)[C@H](C(C)C)NC(=O)[C@H](Cc2ccccc2)NC(=O)[C@H](Cc2c[nH]c3ccccc23)NC(=O)[C@@H]2CCCN2C(=O)[C@H](Cc2c[nH]c3ccccc23)NC1=O [Cyclic peptide a-5-4] (WSVLWPWFVPSVS[2Pal(6-thiazolin-2-yl-4R-CO)]-NH2; lactam N-14)
Kd [1]: < 50 µM

CC(C)C[C@@H]1NC(=O)CNC(=O)[C@@H]2CCCN2C(=O)[C@H](CCC(=O)O)NC(=O)[C@H](Cc2ccccc2)NC(=O)[C@H](CO)NC(=O)[C@@H]2CSC(=N2)c2cccc(n2)C[C@@H](C(N)=O)NC(=O)[C@H](CC(C)C)NC(=O)[C@H](C(C)C)NC(=O)[C@H](CCCNC(=N)N)NC(=O)[C@H](Cc2ccccc2)NC(=O)[C@H](CC(C)C)NC(=O)[C@H](Cc2c[nH]c3ccccc23)NC(=O)[C@H](Cc2c[nH]c3ccccc23)NC1=O [Cyclic peptide a-5-5] (SFEPGLWWLFRVL[2Pal(6-thiazolin-2-yl-4R-CO)]-NH2; lactam N-14)
Kd [1]: < 50 µM

CC(C)C[C@@H]1NC(=O)[C@H](Cc2c[nH]c3ccccc23)NC(=O)[C@@H]2CCCN2C(=O)[C@H](Cc2c[nH]c3ccccc23)NC(=O)[C@H](CC(C)C)NC(=O)[C@H](C(C)C)NC(=O)[C@H](CS)NC(=O)[C@H](Cc2c[nH]c3ccccc23)NC(=O)[C@H](CO)NC(=O)[C@@H]2CSC(=N2)c2cccc(n2)C[C@@H](C(N)=O)NC(=O)CNC(=O)[C@H](Cc2c[nH]c3ccccc23)NC(=O)[C@H](Cc2ccccc2)NC(=O)[C@H](C(C)C)NC1=O [Cyclic peptide a-5-6] (SWCVLWPWLVFWG[2Pal(6-thiazolin-2-yl-4R-CO)]-NH2; lactam N-14)
Kd [1]: ≥ 50 µM

CCC(C)[C@@H]1NC(=O)[C@@H]2CCCN2C(=O)[C@H](Cc2c[nH]c3ccccc23)NC(=O)[C@H](CC(C)C)NC(=O)[C@H](CC(C)C)NC(=O)[C@H](C(C)C)NC(=O)[C@H](Cc2c[nH]c3ccccc23)NC(=O)[C@@H]2CCCN2C(=O)[C@@H]2CSC(=N2)c2cccc(n2)C[C@@H](C(N)=O)NC(=O)[C@H](CC(C)C)NC(=O)[C@H](CO)NC(=O)[C@@H]2CCCN2C(=O)[C@H](C(C)C)NC(=O)[C@H](CC(C)C)NC1=O (stereo partly drawn) [Cyclic peptide a-5-7] (PWVLLWP[Ile(3ξ)]LVPSL[2Pal(6-thiazolin-2-yl-4R-CO)]-NH2; lactam N-14)
Kd [1]: ≥ 50 µM

CC(C)C[C@@H]1NC(=O)[C@H](C)NC(=O)[C@H](Cc2ccccc2)NC(=O)[C@H](C)NC(=O)[C@@H]2CCCN2C(=O)[C@H](Cc2c[nH]c3ccccc23)NC(=O)[C@H](CC(C)C)NC(=O)[C@H](CS)NC(=O)[C@H](C)NC(=O)[C@H](Cc2c[nH]c3ccccc23)NC(=O)[C@@H]2CSC(=N2)c2cccc(n2)C[C@@H](C(N)=O)NC(=O)[C@H](CC(C)C)NC(=O)[C@H](Cc2c[nH]c3ccccc23)NC(=O)[C@H](CO)NC1=O [Cyclic peptide a-5-8] (WACLWPAFALSWL[2Pal(6-thiazolin-2-yl-4R-CO)]-NH2; lactam N-14)
Kd [1]: ≥ 50 µM

CC(C)C[C@@H]1NC(=O)[C@@H]2CCCN2C(=O)[C@H](Cc2c[nH]c3ccccc23)NC(=O)[C@H](Cc2ccccc2)NC(=O)[C@H]([C@H](C)O)NC(=O)[C@@H]2CCCN2C(=O)[C@H](CC(=O)O)NC(=O)[C@H](CS)NC(=O)[C@H](Cc2ccc(O)cc2)NC(=O)[C@H](CCC(=O)O)NC(=O)[C@@H]2CSC(=N2)c2cc(cs2)C[C@@H](C(N)=O)NC(=O)[C@H](CCCNC(=N)N)NC(=O)[C@H](CCCNC(=N)N)NC(=O)[C@H](Cc2ccccc2)NC1=O [a-6-1]
Kd [2]: < 50 µM

CC(C)C[C@@H]1NC(=O)[C@H](CC(=O)O)NC(=O)[C@H](CCC(N)=O)NC(=O)[C@H](CC(=O)O)NC(=O)[C@H](CCCCN)NC(=O)[C@H](Cc2ccc(O)cc2)NC(=O)[C@H](CC(=O)O)NC(=O)[C@H](Cc2ccc(O)cc2)NC(=O)[C@H](CCC(=O)O)NC(=O)[C@H](Cc2ccccc2)NC(=O)[C@H](C)NC(=O)CNC(=O)[C@H](C)NC(=O)[C@@H]2CSC(=N2)c2cc(cs2)C[C@H](C(N)=O)NC1=O [a-6-2]
Kd [2]: ≥ 50 µM

CC[C@H](C)[C@@H]1NC(=O)[C@H](CC(=O)O)NC(=O)[C@@H]2CSC(=N2)c2cc(cs2)CC(C(N)=O)NC(=O)[C@H](CCCNC(=N)N)NC(=O)[C@H](CC(=O)O)NC(=O)CNC(=O)[C@H](CC(=O)O)NC(=O)[C@H](CCCCN)NC(=O)[C@H](Cc2ccc(O)cc2)NC(=O)[C@H](CC(=O)O)NC(=O)[C@H](Cc2ccc(O)cc2)NC(=O)[C@H](C(C)C)NC(=O)CNC(=O)[C@H](C(C)C)NC1=O (stereo partly drawn) [a-6-3]
Kd [2]: ≥ 50 µM

CC[C@H](C)[C@@H]1NC(=O)[C@H](CO)NC(=O)[C@H](CCCNC(=N)N)NC(=O)[C@H](CC(C)C)NC(=O)[C@H]([C@@H](C)O)NC(=O)[C@H](CO)NC(=O)[C@H](C)NC(=O)[C@H]([C@@H](C)O)NC(=O)[C@H](CCC(=O)O)NC(=O)[C@H](CCC(=O)O)NC(=O)[C@@H]2CSC(=N2)c2cc(cs2)C[C@@H](C(N)=O)NC(=O)[C@H](CO)NC(=O)[C@H](CC(=O)O)NC(=O)CNC1=O [a-6-4]
Kd [2]: < 50 µM

CC[C@H](C)[C@@H]1NC(=O)[C@H](CO)NC(=O)[C@H](CO)NC(=O)[C@H](CC(C)C)NC(=O)[C@H]([C@@H](C)O)NC(=O)[C@H]([C@@H](C)O)NC(=O)[C@@H]2CSC(=N2)c2cc(cs2)C[C@@H](C(N)=O)NC(=O)[C@H](CCCNC(=N)N)NC(=O)[C@H](CCCNC(=N)N)NC(=O)[C@H](CC(=O)O)NC(=O)[C@H](C(C)C)NC(=O)[C@H](CCC(N)=O)NC(=O)[C@H](CC(=O)O)NC(=O)CNC1=O [a-6-5]
Kd [2]: < 50 µM

CC[C@H](C)[C@@H]1NC(=O)[C@H](CCC(N)=O)NC(=O)[C@H](CCCNC(=N)N)NC(=O)[C@H](CC(C)C)NC(=O)CNC(=O)[C@H](CC(=O)O)NC(=O)[C@H](C(C)C)NC(=O)[C@H](C(C)C)NC(=O)[C@H](CC(N)=O)NC(=O)[C@@H]2CCCN2C(=O)[C@@H]2CSC(=N2)c2cc(cs2)CC(C(N)=O)NC(=O)[C@H]([C@@H](C)O)NC(=O)[C@H](CC(=O)O)NC(=O)CNC1=O (stereo partly drawn) [a-6-6]
Kd [2]: < 50 µM

CC(C)C[C@H](NC(=O)[C@H](CC(=O)O)NC(=O)[C@H](CCCCN)NC(=O)[C@@H](NC(=O)[C@H](C)NC(=O)[C@H](C)NC(=O)[C@H]1Cc2csc(c2)C2=N[C@@H](CS2)C(=O)N[C@@H](CC(=O)O)C(=O)N[C@@H](CO)C(=O)N[C@@H](Cc2ccc(O)cc2)C(=O)N1)C(C)C)C(=O)N[C@@H](CCC(=O)O)C(=O)N[C@@H](CC(N)=O)C(=O)N[C@@H](C)C(=O)N[C@@H](Cc1csc(C#N)c1)C(N)=O [a-6-7]
Kd [2]: < 50 µM
